# Source: patent US4732977A, “Carbapenem antibiotics” (priority 1986, dated 1988)
# Counter-ions that a name gives are not always drawn. Like-named read-outs stand apart in the source and are kept apart here.
# Assays:
# S. aureus A-9537 = assay: M.I.C., tube dilution; type: cell-based; details: Staphylococcus aureus
# S. faecalis A20688 = assay: M.I.C., tube dilution; type: cell-based; details: Enterococcus faecalis, A20688, overnight incubation at 37° C., Nutrient Broth; read-out: MIC
# E. coli A15119 = assay: M.I.C., tube dilution; type: cell-based; details: Escherichia coli, A15119, 10^-4 dil.
# E. coli A20341-1 = assay: M.I.C., tube dilution; type: cell-based; details: Escherichia coli, A203411; 10^-4; read-out: MIC
# P. vulgaris A21559 = assay: M.I.C., tube dilution; type: cell-based; details: Proteus vulgaris, A21559, overnight incubation at 37° C., Nutrient Broth; read-out: MIC
# P. morganii A15153 = assay: M.I.C., tube dilution; type: cell-based; details: Morganella morganii, A15153
# P. aeruginosa A-9843A [1] = assay: M.I.C., tube dilution; type: cell-based; details: Pseudomonas aeruginosa, A9843A, overnight incubation at 37° C., Nutrient Broth
# P. aeruginosa A21213 = assay: M.I.C., tube dilution; type: cell-based; details: Pseudomonas aeruginosa, A21213, overnight incubation at 37° C., Nutrient Broth; read-out: MIC
# H. influenzae A-9833 = assay: M.I.C., tube dilution; type: cell-based; details: Haemophilus influenzae, A9833; overnight incubation at 37° C., Nutrient Broth
# H. influenzae A21518 = assay: M.I.C., tube dilution; type: cell-based; details: Haemophilus influenzae, overnight incubation at 37° C., Nutrient Broth
# B. fragilis A22862 = assay: M.I.C., tube dilution; type: cell-based; details: Bacteroides fragilis, overnight incubation at 37° C., Nutrient Broth
# B. fragilis A22053 = assay: M.I.C., tube dilution; type: cell-based; details: Bacteroides fragilis, overnight incubation at 37° C., Nutrient Broth
# B. fragilis A22863 = assay: M.I.C., tube dilution; type: cell-based; details: Bacteroides fragilis, overnight incubation at 37° C., Nutrient Broth
# P. mirabilis A-9900 [2] = assay: Protective effect in intramuscular treatment of infected mice; type: in vivo; details: Proteus mirabilis
# Method: (§1) The PD50 (dose in mg/kg required to give protection to 50% of the infected mice) is indicated.
# with drugs 0 and 2 hours postinfection.
# (§2) The PD50 (dose in mg/kg) required to give protection to 50% of the infected mice is indicated.
# P. aeruginosa A-9843a [3] = assay: animal or person; type: in vivo, mice; details: Pseudomonas aeruginosa, A9843A, im
# Method: as §1
# with drugs 0 and 2 hours postinfection.
# as §2
# P. aeruginosa A-20481 = assay: Protective effect in intramuscular treatment of infected mice; type: in vivo; details: Pseudomonas aeruginosa, A20481, im, i.m. 0 and 2 h postinfection, challenge 5.4 × 10^4 organisms, * = historical data, read-out: PD50/Treatment
# P. aeruginosa A-20599 = assay: as above; type: in vivo; details: Pseudomonas aeruginosa, A20599, im, i.m. 0 and 2 h postinfection, challenge 1.4 × 10^5 organisms, * = historical data, read-out: PD50/Treatment
# S. aureus A-9606 = assay: as above; type: in vivo; details: Staphylococcus aureus, read-out: PD50/treatment
# S. faecalis A-20688 = assay: as above; type: in vivo; details: Enterococcus faecalis, A20688, im, i.m. 0 and 2 h postinfection, challenge 2.3 × 10^8 organisms, * = historical data, read-out: PD50/Treatment
# E. coli A-15119 = assay: as above; type: in vivo; details: Escherichia coli
# Method: as §1
# with drugs 0 and 2 hours postinfection.
# as §2
# [4] = Urinary recovery after intramuscular administration to mice; type: in vivo; details: mouse, urine, im, 20 mg/kg, 20 mg/kg i.m.
# From the text: | a single test; 4 mice per compound.
# in vivo = details: mouse
# [5] = Toxicity after intracranial administration to mice; details: mouse, in vivo
# [6] = Blood levels in mice after intramuscular administration;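 note: compounds dissolved in 0.1 M phosphate buffer at pH 7, data from one experiment using four mice for each compound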
# From the text: Compounds were solubilized in 0.1 M phosphate buffer pH 7.
# a single test; 4 mice used per compound.
# Compounds were solubilized in 0.1 M phosphate buffer, pH 7.
# on a single test; 4 mice per compound.
# S. pyogenes A-9604 = assay: M.I.C., tube dilution; type: cell-based; details: Streptococcus pyogenes, A9604; overnight incubation at 37° C., Nutrient Broth; read-out: MIC
# [7] = tested on: S. aureus A15097 (Meth-res.); assay: M.I.C., tube dilution; type: cell-based; details: Staphylococcus aureus, overnight incubation at 37° C.
# K. pneumoniae A-9664 = assay: M.I.C., tube dilution; type: cell-based; details: Klebsiella pneumoniae, A9664, overnight incubation at 37° C., Nutrient Broth; read-out: MIC
# K. pneumoniae A20468 = assay: M.I.C., tube dilution; type: cell-based; details: Klebsiella pneumoniae, A20468, overnight incubation at 37° C., Nutrient Broth; read-out: MIC
# P. mirabilis A-9900 [8] = assay: M.I.C., tube dilution; type: cell-based; details: Proteus mirabilis, A9900, overnight incubation at 37° C., Nutrient Broth; read-out: MIC
# P. rettgeri A22424 = assay: M.I.C., tube dilution; type: cell-based; details: Providencia rettgeri, A22424; overnight incubation at 37° C., Nutrient Broth; read-out: MIC
# S. marcescens A20019 = assay: M.I.C., tube dilution; type: cell-based; details: Serratia marcescens, A20019; overnight incubation at 37° C., Nutrient Broth; read-out: MIC
# E. cloacae A-9659 = assay: M.I.C., tube dilution; type: cell-based; details: Enterobacter cloacae, A9659; overnight incubation at 37° C., Nutrient Broth; read-out: MIC
# E. cloacae A-9656 = assay: M.I.C., tube dilution; type: cell-based; details: Enterobacter cloacae, A9656, overnight incubation at 37° C., Nutrient Broth; read-out: MIC
# B. fragilis A22696 = assay: M.I.C., tube dilution; type: cell-based; details: Bacteroides fragilis, overnight incubation at 37° C., Nutrient Broth
# K. pneumoniae A9664 = assay: Protective effect in intramuscular treatment of infected mice; type: in vivo; details: Klebsiella pneumoniae, im, K. pneumoniae A9664, read-out: PD50/treatment
# From the text: as §2
# P. aeruginosa A24081 = assay: as above; type: in vivo; details: Pseudomonas aeruginosa, A24081, im, read-out: PD50/treatment
# From the text: as §2
smiles,measurement,setting,value
"C[C@@H](O)[C@H]1C(=O)N2C(C(=O)[O-])=C(SCc3cc[n+](C)cc3)C[C@H]12 [Example 1, 1-Methyl-4-[2-carboxy-6α-[1(R)-hydroxyethyl]-7-oxo-1-azabicyclo[3.2.0]hept-2-en-3-thiomethyl]pyridinium hydroxide inner salt]",MIC,"S. aureus A-9537; A9537, overnight incubation at 37° C., Nutrient Broth",0.13 µg/mL
same,MIC,"S. aureus A-9537; A9537, +50% serum",0.03 µg/mL
same,MIC,S. faecalis A20688,0.5 µg/mL
same,MIC,E. coli A15119,0.06 µg/mL
same,MIC,E. coli A20341-1,0.03 µg/mL
same,MIC,P. vulgaris A21559,0.13 µg/mL
same,MIC,P. morganii A15153,0.13 µg/mL
same,MIC,P. aeruginosa A-9843A [1],4 µg/mL
same,MIC,P. aeruginosa A21213,1 µg/mL
same,MIC,H. influenzae A-9833,16 µg/mL
same,MIC,H. influenzae A21518,16 µg/mL
same,MIC,B. fragilis A22862,0.03 µg/mL
same,MIC,B. fragilis A22053,0.03 µg/mL
same,MIC,B. fragilis A22863,0.03 µg/mL
same,ED50,"P. mirabilis A-9900 [2]; A9900, im, read-out: PD50/Treatment",3.3 mg/kg
same,ED50,"P. aeruginosa A-9843a [3]; mice, i.m. 0 and 2 h postinfection, challenge 5.5 × 10^4 organisms, * = historical data, read-out: PD50/Treatment",0.3 mg/kg
same,ED50,P. aeruginosa A-20481,0.63 mg/kg
same,ED50,P. aeruginosa A-20599,0.7 mg/kg
same,ED50,"S. aureus A-9606; A9606, im",0.09 mg/kg
same,ED50,S. faecalis A-20688,3.3 mg/kg
same,ED50,"E. coli A-15119; A15119, im, 3.5 h, read-out: PD50/Treatment",0.6 mg/kg
same,dose excreted at 3 h,[4]; 0-3 hours,26.1%
same,dose excreted at 24 h,[4]; 0-24 hours,26.7 ± 6.7%
same,dose excreted at 6 h,[4]; 3-6 hours,0.5%
same,dose excreted at 24 h,[4]; 6-24 hours,0.1%
same,NOAEL,in vivo,5 mg/kg
same,LD50,[5],14 mg/kg
same,AUC,"[6]; mice, 20 mg/kg i.m. (table 9)",6300 ng·h/mL
same,T1/2,"[6]; mice, 20 mg/kg i.m. (table 9)",10 min
same,AUC,"[6]; mouse, blood, im, 20 mg/kg",6300 ng·h/mL
same,Cmax,"[6]; mouse, blood, im, 20 mg/kg",14000 ng/mL
same,half-life,"[6]; mouse, in vivo, im, 20 mg/kg",10 min
"C[C@@H](O)[C@H]1C(=O)N2C(C(=O)[O-])=C(SCc3cccc[n+]3C)C[C@H]12 [Example 4, 3-(N-Methylpyridine-2-yl-methanethio)-6α-[1-(R)-hydroxyethyl]-7-oxo-1-azabicyclo(3.2.0)hept-2-ene-2-carboxylate]",MIC,S. pyogenes A-9604,0.001 µg/mL
same,MIC,"S. aureus A-9537; A9537, +50% serum, read-out: MIC",0.03 µg/mL
same,MIC,[7],4 µg/mL
same,MIC,S. faecalis A20688,0.5 µg/mL
same,MIC,K. pneumoniae A-9664,0.03 µg/mL
same,MIC,K. pneumoniae A20468,0.03 µg/mL
same,MIC,P. mirabilis A-9900 [8],0.06 µg/mL
same,MIC,P. vulgaris A21559,0.016 µg/mL
same,MIC,P. rettgeri A22424,0.13 µg/mL
same,MIC,S. marcescens A20019,0.03 µg/mL
same,MIC,E. cloacae A-9659,0.03 µg/mL
same,MIC,E. cloacae A-9656,0.06 µg/mL
same,MIC,P. aeruginosa A21213,0.13 µg/mL
same,MIC,H. influenzae A-9833,2 µg/mL
same,MIC,H. influenzae A21518,2 µg/mL
same,MIC,B. fragilis A22862,0.06 µg/mL
same,MIC,B. fragilis A22696,0.5 µg/mL
same,ED50,"P. mirabilis A-9900 [2]; im, mice, i.m., P. mirabilis A9900, read-out: PD50/treatment",4 mg/kg
same,ED50,"P. aeruginosa A-9843a [3]; in Mus musculus, read-out: PD50/treatment",0.2 mg/kg
same,ED50,"S. aureus A-9606; im, mice, i.m., S. aureus A9606",0.1 mg/kg
same,ED50,"E. coli A-15119; im, mice, i.m., E. coli A15119, read-out: PD50/treatment",0.4 mg/kg
same,ED50,K. pneumoniae A9664,3 mg/kg
same,ED50,P. aeruginosa A24081,0.2 mg/kg
same,AUC,"[6]; mouse, blood, im, 20 mg/kg",7700 ng·h/mL
same,Cmax,"[6]; mouse, blood, im, 20 mg/kg",15500 ng/mL
same,half-life,"[6]; mouse, blood, im, 20 mg/kg",11 min
